Results reported in US5089623A, “Certain imidate insecticides” (Imperial Chemical Industries Plc, priority 1990, dated 1992).

How the values were obtained:
Type in all cases: in vivo
[1] = system: Housefly [Musca domestica]; experiment: Housefly insecticidal test (HF); conditions: per 25 female houseflies, 48 hours
[2] = system: Tobacco Budworm [Heliothis virescens (Fabricius)] eggs; experiment: Tobacco budworm egg test (TBW-E); conditions: percent in solution
[3] = system: Cabbage Looper [Trichoplusia ni (Hubner)]; experiment: Cabbage looper test (CL); conditions: second-instar larvae, 3-5 days, percent in solution
[4] = system: Aster Leafhopper [Macrosteles fascifrens (Stal)]; experiment: Aster leafhopper test (LH); conditions: adults/nymphs, 48 hours, percent in solution
[5] = system: Maize weevil [Sitophilus Zeamais (Motschulsky)]; experiment: Maize weevil test (MW); conditions: adult weevils, treated corn seeds, 48 hours, percent in solution
Procedure, shortened: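 Adult weevils (10) were placed with four corn seeds that had been dipped 2-3 s in compound dissolved in 50:50 acetone:water, then dried, and held at about 25° C. Mortality was scored at 48 h. LC50 was taken from dosage-mortality curves and expressed as percent compound in solution, from a 0.01% top concentration.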

Row | SMILES | LC50 HF [1] [µg] | LC50 TBW E [2] [%] | LC50 CL [3] [%] | LC50 LH [4] [%] | LC50 MW [5] [%]
1 | C=C(C)C(=Nc1ccc(Cl)cc1)OCc1cccc(Oc2ccccc2)c1 [Compound 6] | 17 | 0.015 | 0.02 | > 0.05 | > 0.01
2 | CC(C)CC(=Nc1cc(Cl)cc(Cl)c1)OCc1cccc(Oc2ccccc2)c1 [Compound 10] | > 100 | > 0.1 | 0.01 | > 0.05 | 
3 | CCC(=Nc1ccc(Cl)cc1)OCc1cccc(Oc2ccccc2)c1 [Compound 11] | 6 | > 0.1 | 0.025 | > 0.05 | > 0.01
4 | CC(C)C(=Nc1cc(Cl)ccc1Cl)OCc1cccc(Oc2ccccc2)c1 [Compound 13] | > 100 | > 0.1 | 0.014 | > 0.05 | > 0.01
5 | CC(C)C(=Nc1cc(Cl)cc(Cl)c1)OCc1cccc(Oc2ccccc2)c1 [Compound 16] | 20 | 0.04 | 0.004 | 0.0005 | 
6 | CC(C)C(=Nc1ccccc1Cl)OCc1cccc(Oc2ccccc2)c1 [Compound 17] | 75 | > 0.1 | 0.03 | > 0.05 | > 0.01
7 | CC(C)C(=Nc1cc(Cl)c(Cl)c(Cl)c1)OCc1cccc(Oc2ccccc2)c1 [Compound 20] | 64 | < 0.1 | 0.0025 | 0.003 | 
8 | N#CC(=Nc1ccc(Cl)cc1)OCc1cccc(Oc2ccccc2)c1 [Compound 21] | 7 | > 0.1 | 0.02 | > 0.05 | > 0.01
9 | CC(C)(C)C(=Nc1ccc(Cl)c(Cl)c1)OCc1cccc(Oc2ccccc2)c1 [Compound 25] | > 100 | > 0.1 | 0.01 | > 0.05 | > 0.01
10 | FC(F)(F)C(=Nc1ccc(Cl)cc1)OCc1cccc(Oc2ccccc2)c1 [Compound 35] | 15 | 0.03 | 0.008 | > 0.05 | > 0.01
11 | Fc1ccc(N=C(OCc2cccc(Oc3ccccc3)c2)C(Cl)=C(Cl)Cl)cc1 [Compound 49] | > 100 | > 0.05 | 0.007 | > 0.05 | 
12 | CC(C)C(=Nc1c(F)c(F)cc(F)c1F)OCc1cccc(Oc2ccccc2)c1 [Compound 57] | > 100 | 0.1 | 0.004 | 0.0005 | 
13 | COc1ccc(OC)c(N=C(OCc2cccc(Oc3ccccc3)c2)C(C)C)c1 [Compound 69] | > 100 | > 0.1 | 0.09 | > 0.05 | 
14 | CC(C)C(=Nc1ccc(OC(F)(F)F)cc1)OCc1cccc(Oc2ccccc2)c1 [Compound 70] | < 100 | 0.01 | < 0.1 | > 0.05 | 
15 | CC(C)C(=Nc1ccc(C(F)(F)F)c(Cl)c1)OCc1cccc(Oc2ccccc2)c1 [Compound 83] | > 100 | > 0.1 | 0.007 | > 0.05 | 
16 | Cc1ccc(N=C(OCc2cccc(Oc3ccccc3)c2)C(C)C)cc1Cl [Compound 90] | > 100 | 0.016 | > 0.1 | 0.001 | 
17 | COc1c(Cl)cc(N=C(OCc2cccc(Oc3ccccc3)c2)C(C)C)cc1Cl [Compound 91] | 37 | > 0.01 | 0.002 | 0.003 | 
18 | CC(C)C(=Nc1c(Cl)cc([N+](=O)[O-])cc1Cl)OCc1cccc(Oc2ccccc2)c1 [Compound 92] | > 100 | > 0.1 | 0.015 | > 0.05 | 
19 | Clc1ccc(N=C(OCc2cccc(Oc3ccccc3)c2)C(Cl)Cl)c2ccccc12 [Compound 98] | > 100 | 0.1 | 0.016 | > 0.05 | 
20 | Cc1c(Cl)cc(N=C(OCc2cccc(Oc3ccccc3)c2)C(C)C)cc1Cl [Compound 101] | 81 | > 0.1 | 0.0045 | 0.0008 | 
21 | CCOC(=O)c1cc(N=C(OCc2cccc(Oc3ccccc3)c2)C(C)C)ccc1Cl [Compound 102] | > 100 | > 0.1 | 0.075 | > 0.05 | 
22 | CC(C)(Cl)C(=Nc1ccc(C#N)c(Cl)c1)OCc1cccc(Oc2ccccc2)c1 [Compound 108] | 44 | > 0.1 | 0.002 | > 0.01 | 

Row | SMILES | LC50 HF [1] [µg] | LC50 TBW E [2] [%] | LC50 CL [3] [%] | LC50 LH [4] [%] | LC50 MW [5] [%]
23 | CC(C)C(=Nc1c(F)cc(F)cc1Br)OCc1cccc(Oc2ccccc2)c1 [Compound 129] | > 100 | > 0.1 | 0.005 | 0.01 | 
24 | CC(C)C(=Nc1ccc(Br)cc1)OCc1cccc(Oc2ccccc2)c1 [Compound 131] | 17 | > 0.1 | 0.0045 | 0.005 | 
25 | CC(C)(C)C(=Nc1ccc(Br)cc1)OCc1cccc(Oc2ccccc2)c1 [Compound 135] | > 100 | > 0.1 | 0.004 | > 0.05 | 
26 | CC(C)C(=Nc1ccc(I)cc1)OCc1cccc(Oc2ccccc2)c1 [Compound 137] | 18 | 0.04 | 0.003 | 0.008 | 
27 | CCc1cccc(N=C(OCc2cccc(Oc3ccccc3)c2)C(C)C)c1 [Compound 154] | 25 | 0.1 | 0.004 | > 0.05 | 
28 | CCc1ccc(N=C(OCc2cccc(Oc3ccc(F)cc3)c2)C(C)C)cc1 [Compound 159] | 25 | 0.08 | 0.001 | 0.0025 | 
29 | CCc1ccc(N=C(OCc2cccc(Oc3ccccc3)c2)C(C)C)cc1 [Compound 161] | 15 | 0.07 | 0.0014 | 0.002 | 
30 | CCc1cccc(N=C(OCc2cccc(Oc3ccccc3)c2)C(C)(C)C)c1 [Compound 162] | > 100 | > 0.1 | 0.035 | > 0.05 | 
31 | CC(C)C(=Nc1ccc2c(c1)CCC2)OCc1cccc(Oc2ccccc2)c1 [Compound 187] | 15 | > 0.1 | 0.0025 | 0.0025 | 
32 | CCCC(=Nc1ccc2c(c1)OCO2)OCc1cccc(Oc2ccccc2)c1 [Compound 188] | 12 | > 0.1 | 0.002 | > 0.05 | 
33 | Cc1ccc(Oc2cccc(COC(=Nc3ccc(F)c(Cl)c3)C(C)C)c2)cc1 [Compound 225] | > 100 | > 0.1 | 0.0025 | > 0.05 | 
34 | CC(C)C(=Nc1ccc(C(C)C)cc1)OCc1cccc(Oc2ccc(F)cc2)c1 [Compound 228] | > 100 | > 0.1 | 0.0025 | > 0.05 | 
35 | CC(C)C(=Nc1ccc2c(c1)OC(C)(C)O2)OCc1ccc(F)c(Oc2ccccc2)c1 [Compound 242] | < 100 | > 0.1 | 0.00025 | > 0.05 | 
36 | CSc1ccc(Oc2cccc(COC(=Nc3ccc(F)cc3)C(C)C)c2)cc1 [Compound 257] | > 100 | > 0.1 | 0.008 | > 0.05 | 
37 | Fc1ccc(Oc2cccc(COC(=Nc3ccc(F)c(Cl)c3)C(F)(F)C(F)(F)F)c2)cc1 [Compound 258] | > 100 | > 0.1 | 0.003 | > 0.05 | 
38 | CC(C)C(=Nc1cccc([N+](=O)[O-])c1)OCc1cccc(Oc2ccc(Cl)cc2)c1 [Compound 271] | 27 | 0.1 | 0.0004 | > 0.05 | 
39 | CC(C)C(=Nc1cc(F)ccc1Cl)OCc1ccc(F)c(Oc2ccc(F)cc2)c1 [Compound 303] | > 100 | > 0.1 | 0.0015 | 0.0005 | 
40 | CC(C)C(=Nc1ccc(Cl)cc1)OC(C)c1cccc(Oc2ccccc2)c1 (centres unmarked) [Compound 457] | > 100 | > 0.05 | 0.009 | > 0.05 | 
41 | CC(C)C(=Nc1ccc2c(c1)OCO2)OCc1cccc(Oc2ccc(F)cc2)n1 [Compound 465] | 8 | 0.027 | 0.0017 | 0.0025 | 
42 | CC(C)C(=Nc1ccc(OC(F)(F)F)cc1)OCc1cccc(Cc2ccccc2)c1 [Compound 538] | 75 |  | > 0.1 | > 0.05 | > 0.01
43 | CC(C)C(=Nc1cccc(C(F)(F)F)c1)OCC#CCOc1ccccc1 [Compound 548] | > 100 | > 0.1 | < 0.1 | > 0.05 | 
